{"source": "patent US20250313546A1", "about": "“NUCLEIC ACID BINDERS” (UNIVERSITY OF STRATHCLYDE, priority 2022, published 2025)", "key": {"[1]": {"system": "Enterococcus faecalis (ATCC 51299)", "assay": "Antibacterial MIC, broth microdilution (CLSI)", "format": "cell-based", "conditions": "Enterococcus faecalis, ATCC51299; read-out: MIC80 E. faecalis"}, "[2]": {"system": "Escherichia coli (ATCC 25922)", "assay": "Antibacterial MIC, broth microdilution (CLSI)", "format": "cell-based", "conditions": "Escherichia coli, ATCC25922; read-out: MIC80 E. coli"}, "Aspergillus fumigatus": {"system": "Aspergillus fumigatus", "assay": "Expanded set of filamentous fungi, MIC broth microdilution (CLSI)", "format": "cell-based"}, "Fusarium oxysporum": {"system": "Fusarium oxysporum", "assay": "Expanded set of filamentous fungi, MIC broth microdilution (CLSI)", "format": "cell-based", "conditions": "MIC at 50% inhibition"}, "Fusarium solani": {"system": "Fusarium solani", "assay": "Expanded set of filamentous fungi, MIC broth microdilution (CLSI)", "format": "cell-based", "conditions": "MIC at 50% inhibition"}, "Paecilomyces variotii": {"system": "Paecilomyces variotii", "assay": "Expanded set of filamentous fungi, MIC broth microdilution (CLSI)", "format": "cell-based", "conditions": "isolate MYA-3630, MIC at 50% inhibition"}, "Rhizopus arrhizus": {"system": "Rhizopus arrhizus", "assay": "Expanded set of filamentous fungi, MIC broth microdilution (CLSI)", "format": "cell-based"}, "Blastomyces dermatitidis": {"system": "Blastomyces dermatitidis", "assay": "Expanded set of filamentous fungi, MIC broth microdilution (CLSI)", "format": "cell-based"}, "Candida parapsilosis": {"system": "Candida parapsilosis", "assay": "Expanded set of yeasts, MIC broth microdilution (CLSI)", "format": "cell-based", "conditions": "MIC at 50% inhibition; for MIC50: Lodderomyces parapsilosis"}, "C. albicans": {"system": "C. albicans", "assay": "Expanded set of yeasts, MIC broth microdilution (CLSI)", "format": "cell-based", "conditions": "MIC at 50% inhibition; for MIC50: Candida albicans"}, "C. auris": {"system": "C. auris", "assay": "Expanded set of yeasts, MIC broth microdilution (CLSI)", "format": "cell-based", "conditions": "MIC at 50% inhibition"}, "C. glabrata": {"system": "C. glabrata", "assay": "Expanded set of yeasts, MIC broth microdilution (CLSI)", "format": "cell-based", "conditions": "Nakaseomyces glabratus, MIC at 50% inhibition"}, "C. guilliiermondii": {"system": "C. guilliiermondii", "assay": "Expanded set of yeasts, MIC broth microdilution (CLSI)", "format": "cell-based", "conditions": "MIC at 50% inhibition"}, "[3]": {"system": "Genomic double stranded DNA (salmon)", "assay": "Fluorescence intercalator displacement (FID) assay, SYBR-safe probe", "conditions": "20 μM compound, 30° C., lower % = stronger binding", "how_it_was_run": "(§1)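 Probe displacement was measured at 30 °C in 1 mM phosphate pH 7.4 containing SybrSafe (12500-fold dilution), 3.76 ng/mL nucleic acid (salmon dsDNA or polyAU dsRNA) and 20 μM compound. Fluorescence loss is normalised between probe-only and probe-plus-nucleic-acid controls.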"}, "[4]": {"system": "PolyAU double stranded RNA", "assay": "Fluorescence intercalator displacement (FID) assay, SYBR-safe probe", "conditions": "20 μM compound, 30° C., lower % = stronger binding", "how_it_was_run": "as §1"}, "C. albicans (ATCC 90028)": {"system": "C. albicans (ATCC 90028)", "conditions": "Candida albicans, ATCC90028, read-out: MIC99 C. albicans", "procedure": "(§2) The Minimum Inhibitory Concentration (MIC, at 99% inhibition) of the compounds was determined using the broth microdilution method as recommended by EUCAST (EUCAST Definitive Document E.DEF 9.3.2, Method for the determination of broth dilution minimum inhibitory concentrations of antifungal agents for conidia forming moulds and EUCAST Definitive Document E.DEF 7.3.2 Method for the determination of broth dilution minimum inhibitory concentrations of antifungal agents for yeasts)."}, "C. neoformans (F10025)": {"system": "C. neoformans (F10025)", "conditions": "Cryptococcus neoformans, read-out: MIC99 C. neoformans", "procedure": "as §2"}, "[5]": {"system": "A. fumigatus A1160 (MFIG001)", "conditions": "Aspergillus fumigatus, read-out: MIC99 A. fumigatus A1160", "procedure": "as §2"}, "Candida auris (H.17.157)": {"system": "Candida auris (H.17.157)", "conditions": "Candidozyma auris, read-out: MIC99 Candida auris", "procedure": "as §2"}, "[6]": {"system": "Candida glabrata (ACPF3309)", "conditions": "Nakaseomyces glabratus, read-out: MIC99 Candida glabrata", "procedure": "as §2"}, "[7]": {"system": "Scedosporium prolificans (F2746)", "conditions": "Lomentospora prolificans, read-out: MIC99 Scedosporium prolificans", "procedure": "as §2"}}, "note": "Read-outs that look alike come from different tables or passages of the source.", "data": [{"smiles": "C/N=C(/CCNC(=O)c1cc(NC(=O)c2cc(NC(=O)c3ccc(/C=C/c4cnc5ccccc5c4)cc3)cn2C)cn1C)NC", "note": "[Ia10, 1-methyl-4-(1-methyl-4-(4-((E)-2-(quinolin-3-yl)vinyl)benzamido)-1H-pyrrole-2-carboxamido)-N—((Z)-3-(methylamino)-3-(methylimino)propyl)-1H-pyrrole-2-carboxamide]", "values": [{"measurement": "MIC80", "setting": "[1]", "result": "< 5", "unit": "µM"}, {"measurement": "MIC80", "setting": "[2]", "result": "> 100", "unit": "µM"}, {"measurement": "MIC50", "setting": "Aspergillus fumigatus; isolate AF293, MIC at 50% inhibition", "result": "≤ 1", "unit": "µg/mL"}, {"measurement": "MIC50", "setting": "Aspergillus fumigatus; isolate DI15-106, MIC at 50% inhibition", "result": "≤ 1", "unit": "µg/mL"}, {"measurement": "MIC50", "setting": "Aspergillus fumigatus; isolate DI15-116, MIC at 50% inhibition", "result": "≤ 1", "unit": "µg/mL"}, {"measurement": "MIC50", "setting": "Aspergillus fumigatus; isolate DI19-187, MIC at 50% inhibition", "result": "≤ 1", "unit": "µg/mL"}, {"measurement": "MIC50", "setting": "Aspergillus fumigatus; isolate DI19-230, MIC at 50% inhibition", "result": "≤ 1", "unit": "µg/mL"}, {"measurement": "MIC50", "setting": "Aspergillus fumigatus; isolate DI19-231, MIC at 50% inhibition", "result": "1 to 8", "unit": "µg/mL"}, {"measurement": "MIC50", "setting": "Aspergillus fumigatus; isolate DI19-232, MIC at 50% inhibition", "result": "≤ 1", "unit": "µg/mL"}, {"measurement": "MIC50", "setting": "Aspergillus fumigatus; isolate DI19-233, MIC at 50% inhibition", "result": "≤ 1", "unit": "µg/mL"}, {"measurement": "MIC50", "setting": "Aspergillus fumigatus; isolate DI19-234, MIC at 50% inhibition", "result": "≤ 1", "unit": "µg/mL"}, {"measurement": "MIC50", "setting": "Aspergillus fumigatus; isolate DI19-236, MIC at 50% inhibition", "result": "≤ 1", "unit": "µg/mL"}, {"measurement": "MIC50", "setting": "Aspergillus fumigatus; isolate DI19-237, MIC at 50% inhibition", "result": "≤ 1", "unit": "µg/mL"}, {"measurement": "MIC50", "setting": "Aspergillus fumigatus; isolate DI20-95, MIC at 50% inhibition", "result": "≤ 1", "unit": "µg/mL"}, {"measurement": "MIC50", "setting": "Aspergillus fumigatus; isolate DI20-103, MIC at 50% inhibition", "result": "≤ 1", "unit": "µg/mL"}, {"measurement": "MIC50", "setting": "Fusarium oxysporum; Fusarium oxysporum, isolate F2", "result": "≤ 1", "unit": "µg/mL"}, {"measurement": "MIC50 Fusarium oxysporum", "setting": "Fusarium oxysporum; isolate F3", "result": "*** (*** means MIC50 <= 1 μg/mL)"}, {"measurement": "MIC50", "setting": "Fusarium solani; Fusarium solani, isolate F4", "result": "≤ 1", "unit": "µg/mL"}, {"measurement": "MIC50 Fusarium solani", "setting": "Fusarium solani; isolate DI19-284", "result": "*** (*** means MIC50 <= 1 μg/mL)"}, {"measurement": "MIC50", "setting": "Paecilomyces variotii", "result": "1 to 8", "unit": "µg/mL"}, {"measurement": "MIC50", "setting": "Rhizopus arrhizus; isolate 99-880, MIC at 50% inhibition", "result": "1 to 8", "unit": "µg/mL"}, {"measurement": "MIC50", "setting": "Rhizopus arrhizus; isolate 99-892, MIC at 50% inhibition", "result": "1 to 8", "unit": "µg/mL"}, {"measurement": "MIC50", "setting": "Rhizopus arrhizus; isolate RA3, MIC at 50% inhibition", "result": "1 to 8", "unit": "µg/mL"}, {"measurement": "MIC50", "setting": "Blastomyces dermatitidis; isolate BD1, MIC at 50% inhibition", "result": "1 to 8", "unit": "µg/mL"}, {"measurement": "MIC50", "setting": "Blastomyces dermatitidis; isolate BD2, MIC at 50% inhibition", "result": "1 to 8", "unit": "µg/mL"}, {"measurement": "MIC50", "setting": "Blastomyces dermatitidis; isolate BD3, MIC at 50% inhibition", "result": "8 to 32", "unit": "µg/mL"}, {"measurement": "MIC50", "setting": "Candida parapsilosis; ATCC22019, isolate ATCC 22019, read-out: MIC50 Candida parapsilosis", "result": "1 to 8", "unit": "µg/mL"}, {"measurement": "MIC50", "setting": "Candida parapsilosis; isolate CP1, read-out: MIC50 C. parapsilosis", "result": "1 to 8", "unit": "µg/mL"}, {"measurement": "MIC50 C. parapsilosis", "setting": "Candida parapsilosis; isolate CP2", "result": "** (** means 1 μg/mL < MIC50 <= 8 μg/mL)"}, {"measurement": "MIC50 C. parapsilosis", "setting": "Candida parapsilosis; isolate CP3", "result": "** (** means 1 μg/mL < MIC50 <= 8 μg/mL)"}, {"measurement": "MIC50", "setting": "C. albicans; isolate CA3", "result": "1 to 8", "unit": "µg/mL"}, {"measurement": "MIC50", "setting": "C. albicans; isolate SC5314", "result": "1 to 8", "unit": "µg/mL"}, {"measurement": "MIC50 C. albicans", "setting": "C. albicans; isolate CA90028", "result": "** (** means 1 μg/mL < MIC50 <= 8 μg/mL)"}, {"measurement": "MIC50", "setting": "C. auris; Candidozyma auris, isolate DI17-47", "result": "1 to 8", "unit": "µg/mL"}, {"measurement": "MIC50 C. auris", "setting": "C. auris; isolate DI17-46", "result": "** (** means 1 μg/mL < MIC50 <= 8 μg/mL)"}, {"measurement": "MIC50 C. auris", "setting": "C. auris; isolate DI17-48", "result": "** (** means 1 μg/mL < MIC50 <= 8 μg/mL)"}, {"measurement": "MIC50", "setting": "C. glabrata; isolate 05-62", "result": "≤ 1", "unit": "µg/mL"}, {"measurement": "MIC50", "setting": "C. glabrata; isolate 05-761", "result": "≤ 1", "unit": "µg/mL"}, {"measurement": "MIC50", "setting": "C. glabrata; isolate CG3", "result": "≤ 1", "unit": "µg/mL"}, {"measurement": "MIC50", "setting": "C. guilliiermondii; isolate Cgui1", "result": "1 to 8", "unit": "µg/mL"}, {"measurement": "MIC50 C. guilliiermondii", "setting": "C. guilliiermondii; isolate Cgui2", "result": "** (** means 1 μg/mL < MIC50 <= 8 μg/mL)"}, {"measurement": "MIC50 C. guilliiermondii", "setting": "C. guilliiermondii; isolate Cgui3", "result": "** (** means 1 μg/mL < MIC50 <= 8 μg/mL)"}, {"measurement": "% Normalised Fluorescence with gDNA", "setting": "[3]", "result": 8, "unit": "%"}, {"measurement": "% Normalised Fluorescence with polyAU RNA", "setting": "[4]", "result": 17, "unit": "%"}, {"measurement": "MIC99", "setting": "C. albicans (ATCC 90028)", "result": "5 to 25", "unit": "µg/mL"}, {"measurement": "MIC99", "setting": "C. neoformans (F10025)", "result": "< 5", "unit": "µg/mL"}, {"measurement": "MIC99", "setting": "[5]", "result": "< 5", "unit": "µg/mL"}, {"measurement": "MIC99", "setting": "Candida auris (H.17.157)", "result": "5 to 25", "unit": "µg/mL"}, {"measurement": "MIC99", "setting": "[6]", "result": "< 5", "unit": "µg/mL"}, {"measurement": "MIC99", "setting": "[7]", "result": "< 5", "unit": "µg/mL"}]}]}
